Source: patent publication US20190381180A1, “HYBRID CARRIERS FOR NUCLEIC ACID CARGO” (CureVac AG, priority 2016, published 2019)

How the values were obtained:
Sol8 cells = assay: Transfection of Sol8 muscle cells in vitro; format: cell-based, Mus musculus; conditions: very small amount of lipid, in combination with low- and high-charge ratio complexes
Description: A volume of 10 μL supernatant was transferred to a 96 well plate for GpLuc measurement. Then, coelenterazine working solution (100 μM) was prepared (1 mL coelenterazine stock solution (4.72 mM in EtOH) in 49 mL phosphate buffered saline supplemented with 5 mM NaCl, pH 7.2). A volume of 100 μL coelenterazine working solution was used as a substrate for GpLuc and measured after 5 seconds in a commercially available microplate reader.
As a read-out for transfection efficiency, […] mRNA (SEQ ID:NO 15) was used as a cargo. A successful transfection with the cargo leads to the translation of the luciferase protein and to a secretion of Gp luciferase protein into the cell culture supernatant.
For a subset on hydrogel, a volume of 0.2 mL Sol8 cells (20.000 cells) were seeded in 96 well glass bottom plates (Softwell Hydrogel coated with collagen (elasticity E=12 kPa)). For another subset without hydrogel, a volume of 0.2 mL with 10.000 Sol8 cells per well were seeded in a 96 well glass bottom plates.
After removing the medium from each well, 100 μL DMEM medium (with 2% horse serum) was added to each well. […] Twenty-four hours post transfection, 10 μL of supernatant of each well was extracted and used for further luminescence analysis, which was performed as described in Example 5.

[1] = tested on: HepG2 cells (human liver carcinoma cell line); assay: Transfection efficiency on HepG2 cells in vitro (GpLuc luminescence in supernatant); format: cell-based; conditions: GpLuc mRNA, 24 h (FIG. 2A)
Description: This example describes the evaluation of the effect of different polymer-lipid formulations on transfection efficiency on HepG2 cells (human liver carcinoma cell line). As a read-out for transfection efficiency, GpLuc mRNA (SEQ ID NO:14) was used as a cargo.
Successful transfection with the cargo leads to the translation of the luciferase protein and to a secretion of Gp luciferase protein into the cell culture supernatant.
A volume of 0.2 mL HepG2 cells (10.000 cells) were seeded in a 96 well tissue culture plate. After removing the medium from each well, 100 μL RPMI 1640 medium (with 1% Penicillin and 1% Streptomycin, 1% L-Glutamin) was added to each well. Afterwards, HepG2 cells were transfected with 100 μL transfection mix (in triplicates) of polymer-lipid mRNA complexes (prepared according to Example 3) and respective controls (in triplicates), and cells were incubated at 37° C. and 5% CO2 for 90 minutes. […] Twenty-four hours post transfection, 10 μL of supernatant of each well was extracted and used for further luminescence analysis (see below).
A volume of 10 μL supernatant was transferred to a 96 well plate for GpLuc measurement. […] A volume of 100 μL coelenterazine working solution was used as a substrate for GpLuc and measured after 5 seconds in a commercially available microplate reader.

For CCCCCCCC/C=C\CCCCCCCC(=O)OCC(C[N+](C)(C)C)OC(=O)CCCCCCC/C=C\CCCCCCCC.[Cl-] (stereo not drawn) [N-[1-(2,3-dioleoyloxy)propyl]-N,N,N-trimethylammonium chloride], the “increase of expression levels in Sol8 cells” value (Sol8 cells) was “effective”.
In the case of CCCCC/C=C\C/C=C\CCCCCCCCC1(CCCCCCCC/C=C\C/C=C\CCCCC)OCC(CCN(C)C)O1 (stereo not drawn) [KC2, 2,2-dilinoleyl-4-(2-dimethylaminoethyl)[1,3]-dioxolane], the “transfection efficiency compared to PB83 polymer alone” value ([1]; combination with polymer PB83, high-charge complexes (N/P 4), 1 and 2 nmol/μg RNA lipid) is reported as “this effect was observable”.
CCCCC/C=C\C/C=C\CCCCCCCCC(CCCCCCCC/C=C\C/C=C\CCCCC)OC(=O)CCCN(C)C [MC3, (6Z,9Z,28Z,31Z)-heptatriaconta-6,9,28,31-tetraen-19-yl-4-(dimethylamino)butanoate] was tested, and the “transfection efficiency compared to PB83 polymer alone” value ([1]; combination with polymer PB83, low charge complexes (N/P 0.7), 0.4 and 1 nmol/μg RNA lipid) was “increase in transfection efficiency”.
